The values that follow come from US20090042835A1, “COMPOSITIONS AND METHODS FOR AMELIORATING HYPERLIPIDEMIA” (priority 2006, published 2009).

In assay [1] the target is T1, L-FABP (Homo sapiens, UniProt P07148).
T1 sequence (P07148 1-127): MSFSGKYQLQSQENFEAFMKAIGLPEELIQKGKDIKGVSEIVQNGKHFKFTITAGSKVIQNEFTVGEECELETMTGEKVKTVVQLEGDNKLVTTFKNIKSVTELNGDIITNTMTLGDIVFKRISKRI
Briefly: 1,8-ANS binding to FABP (direct binding isotherms). The source says:
The pharmaceutical compound may be formulated using any small molecule that is capable of inhibiting L-FABP and which is pharmaceutically acceptable. One non-limiting example of a suitable L-FABP inhibitor is 3-(decyldimethylsilyl)-N-[2-(4-methylphenyl)-1-phenylethyl]propanamide (Sandoz compound 58-035) (lot #fr. 09061988), In some embodiments, such L-FABP inhibitors are identified using a screening assay. […] Suitable in vitro assays for testing L-FABP include, but are not limited to a high throughput L-FABP assay based on the 1,8-ANS binding assay (see: Kane, C. D., and Bernlohr, D. A. 1996, A simple assay for intracellular lipid-binding proteins using displacement of 1-anilinonaphthalene 8-sulfonic acid. Anal Biochem 233:197-204.) In this assay, recombinant L-FABP is incubated with a fluorescent surrogate ligand, 1-anilinonapthalene 8-sulfonic acid (ANS) and allowed to come to equilibrium. 1,8-ANS is non-fluorescent in solution but is highly fluorescent when bound in the hydrophobic, lipid-binding pocket of the fatty acid binding proteins. […] Chemical compounds in pools of 5 were added to each well and the fluorescence re-measured. […] In tertiary screens, the primary targets will be titrated into the FABP bound with 1,8-ANS and the displacement quantitated as a function of ligand concentration.

Assay [2] relates to control mice. The assay can be described thus: PPARα agonist GW-7647 feeding, hepatic mRNA, control mice. It counts as in vivo. Conditions: 2.5 mg/kg/d in chow, 7 weeks. The method, then: (§1) Animal Studies. Male PPARα−/− mice and age matched WT littermates (on SV/129 background) were fed a standard chow diet, supplemented with either the PPARα agonist GW-7647 (2.5 mg/kg/d) or equivalent amount of solvent vehicle (DMSO), for 7 weeks. All animals had ad libitum access to water. Mice were weighed every 2 weeks and drug intake was adjusted according to mean weight. Upon end of treatment animals were sacrificed, liver was isolated, and total RNA was extracted using Versagene RNA Tissue Kit (Gentra Systems, Inc.). First-Strand cDNA synthesis and Real Time PCR expression analyses were performed as described above.

Assay [3] relates to PPARα−/− mice. The assay can be described thus: PPARα agonist GW-7647 feeding, hepatic mRNA, PPARα−/− mice. In kind it is in vivo. The settings on record: 2.5 mg/kg/d in chow, 7 weeks. The method, then:
as §1

Assay [4] concerns the target T1, L-FABP. Conditions: cited from earlier work.
The target in assay [5] is T2, PPARα (rat, UniProt P37230 1-468).
T2 construct: Nuclear receptor; It was present in a crude nuclear extract, not purified; also called PPAR alpha
T2 sequence (looked up): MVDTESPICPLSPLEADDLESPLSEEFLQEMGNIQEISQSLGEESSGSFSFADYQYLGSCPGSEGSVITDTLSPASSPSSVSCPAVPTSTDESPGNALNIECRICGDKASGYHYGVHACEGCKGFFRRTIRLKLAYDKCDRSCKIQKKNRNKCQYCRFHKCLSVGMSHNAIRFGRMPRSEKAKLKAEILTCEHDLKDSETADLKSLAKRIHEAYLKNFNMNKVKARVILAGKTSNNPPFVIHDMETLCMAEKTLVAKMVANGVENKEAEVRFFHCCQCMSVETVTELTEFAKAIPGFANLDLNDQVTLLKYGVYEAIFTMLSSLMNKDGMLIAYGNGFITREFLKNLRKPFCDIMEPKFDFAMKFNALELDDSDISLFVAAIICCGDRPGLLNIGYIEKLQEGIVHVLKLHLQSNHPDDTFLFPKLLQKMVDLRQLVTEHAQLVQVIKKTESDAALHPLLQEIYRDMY
Briefly: inferred from EMSA supershift of the same FAO-specific DNA-protein complex with anti-RXRα and anti-PPARα antibodies. The protocol: The probes were prepared by annealing the complementary oligonucleotides and by end labeling with [γ-³²P]ATP ([…]), PerkinElmer Life Sciences) using T4 polynucleotide kinase (New England Biolabs), followed by purification on a G50 column. For binding reactions, 15 μg of nuclear extracts were incubated with 3×10^4 cpm probe on ice for 20 min in a total volume of 15 μl of solution (20 mM HEPES, pH7.9 at 4° C., 10% glycerol, 100 mM KCl, 1 mM EDTA, and 2 μg poly(dI-dC). For supershift experiments, 1 μl of specific antibodies were added to preincubated DNA-protein complexes for an additional 20 min on ice. Antibodies against COUP-TFII (sc-6576X), RXRα (sc-553X), and PPARα (sc-9000X) were obtained from Santa Cruz Biotechnology, Inc. DNA-protein complexes were resolved on 4% native polyacrylamide gel electrophoresis containing 0.5×TBE buffer.
PPARα-RXRα heterodimers compete with COUP-TFII for binding to the DR1 promoter elements of both the MTP and L-FABP genes. […] In contrast, PPARα-RXRα supershifts were not detected with the nuclear extracts obtained from L35 cells ((4)). These Findings indicate that in FAO cells, the DR1 sites of both the L-FABP and MTP promoters are occupied by PPARα-RXRα heterodimers while these same sites are occupied by a COUP-TFII complex in L35 cells.

For the molecule `O=S(=O)(O)c1cccc2cccc(Nc3ccccc3)c12` [1,8-ANS, 1-anilinonapthalene 8-sulfonic acid], the Kd (in general, a measure of binding affinity in units of concentration) in assay [1] came out at 1500 nM.

For the molecule `CC(C)(Sc1ccc(CCN(CCCCC2CCCCC2)C(=O)NC2CCCCC2)cc1)C(=O)O` [GW-7647], in assay [2], the “hepatic L-FABP mRNA level” value was “increased levels” and the “hepatic MTP mRNA level” value is recorded as “increased levels”. In assay [3], the “hepatic L-FABP expression level” value is recorded as “no significant changes” and the “hepatic MTP expression level” value is listed as “no significant changes”.

As to `CCCCCCCCCC[Si](C)(C)CCC(=O)NC(Cc1ccc(C)cc1)c1ccccc1` (stereo not shown) [Sandoz compound 58-035, 3-(decyldimethylsilyl)-N-[2-(4-methylphenyl)-1-phenylethyl]propanamide], the “inhibition of L-FABP” value in assay [4] was “inhibit L-FABP”.

B1: RXRα (receptor, rat, UniProt Q05343 1-467, looked up)
chain: MDTKHFLPLDFSTQVNSSSLSSPTGRGSMAAPSLHPSLGPGLGSPLGSPGQLHSPISTLSSPINGMGPPFSVISSPMGPHSMSVPTTPTLGFETGSPQLNSPMNPVSSSEDIKPPLGLNGVLKVPAHPSGNMSSFTKHICAICGDRSSGKHYGVYSCEGCKGFFKRTVRKDLTYTCRDNKDCLIDKRQRNRCQYCRYQKCLAMGMKREAVQEERQRGKDRNENEVESTSSANEDMPVEKILEAELAVEPKTETYVEANMGLNPSSPNDPVTNICQAADKQLFTLVEWAKRIPHFSELPLDDQVILLRAGWNELLIASFSHRSIAVKDGILLATGLHVHRNSAHSAGVGAIFDRVLTELVSKMRDMQMDKTELGCLRAIVLFNPDSKGLSNPAEVEALREKVYASLEAYCKHKYPEQPGRFAKLLLRLPALRSIGLKCLEHLFFFKLIGDTPIDTFLMEMLEAPHQTT
notes: Nuclear receptor; It was present in a crude nuclear extract, not purified; also called RXR alpha
Consider B1, for which the binding result in assay [5] was “binds”.
